Reference: patent publication US12421243B2, “Pharmaceutically effective compounds inhibiting selectively the myosin 2 isoforms” (PRINTNET KERESKEDELMI ÉS SZOLGÁLTATÓ KFT., priority 2018, dated 2025)

Assays:
[1] = biological target: recombinant Dictyostelium miozin (Dictyostelium) (Dictyostelium discoideum, UniProt P08799); assay: actomyosin steady state ATPase measurement, Dictyostelium myosin; assay type: biochemical; conditions: for IC50: concentration required for semi-maximal inhibition of ATPase, read-out: IC50 (μM) Dicty; for inhibition at 5 µM: read-out: % inhibition at 5 μM (or 10 μM if racemate) Dicty; for inhibition at 50 µM: read-out: % inhibition at 50 μM (or 100 μM if racemate) Dicty
Text: (§1) […]; (ii) the concentration required for semi-maximal inhibition.

[2] = biological target: recombinant human non-muscle myosin 2 NM2A (Homo sapiens, UniProt P35579); assay: actomyosin steady state ATPase measurement, NM2A; assay type: biochemical; conditions: for IC50: concentration required for semi-maximal inhibition of ATPase; for inhibition at 5 µM: read-out: % inhibition at 5 μM (or 10 μM if racemate) NM2A, 5 μM (10 μM if racemate); for inhibition at 5 µM / inhibition at 50 µM: ATPase activity; for inhibition at 50 µM: read-out: % inhibition at 50 μM (or 100 μM if racemate) NM2A, 50 μM (100 μM if racemate)
Text: as §1

[3] = biological target: recombinant human non-muscle myosin 2 NM2B (Homo sapiens, UniProt P35580); assay: actomyosin steady state ATPase measurement, NM2B; assay type: biochemical
Text: as §1

[4] = biological target: recombinant human non-muscle myosin 2 NM2C (Homo sapiens, UniProt Q7Z406); assay: actomyosin steady state ATPase measurement, NM2C; assay type: biochemical; conditions: for IC50: concentration required for semi-maximal inhibition of ATPase; for inhibition at 5 µM: read-out: % inhibition at 5 μM (or 10 μM if racemate) NM2C, 5 μM (10 μM if racemate); for inhibition at 5 µM / inhibition at 50 µM: ATPase activity; for inhibition at 50 µM: read-out: % inhibition at 50 μM (or 100 μM if racemate) NM2C, 50 μM (100 μM if racemate)
Text: as §1

[5] = biological target: T1, isolated porcine cardiac ventricular myocardium (cardiac) (Sus scrofa, UniProt P79293); assay: actomyosin steady state ATPase measurement, cardiac myosin; assay type: biochemical; conditions: for IC50: concentration required for semi-maximal inhibition of ATPase; for % inhibition. complete cardiac: maximum value of inhibition of ATPase activity; for inhibition at 5 µM: read-out: % inhibition at 5 μM (or 10 μM if racemate) cardiac, 5 μM (10 μM if racemate); for inhibition at 5 µM / inhibition at 50 µM: ATPase activity; for inhibition at 50 µM: read-out: % inhibition at 50 μM (or 100 μM if racemate) cardiac, 50 μM (100 μM if racemate)
T1 construct: isolated porcine cardiac ventricular myocardium (cardiac); from tissue; host or cells: porcine cardiac ventricle
Text: as §1

[6] = tested on: isolated rabbit skeletal muscle myosin (skeletal); assay: actomyosin steady state ATPase measurement, skeletal muscle myosin; assay type: biochemical; conditions: for % inhibition at 5 μM (or 10 μM if racemate) Skeletal: 5 μM (10 μM if racemate); for % inhibition at 5 μM (or 10 μM if racemate) Skeletal / % inhibition at 50 μM (or 100 μM if racemate) Skeletal: ATPase activity; for % inhibition at 50 μM (or 100 μM if racemate) Skeletal: 50 μM (100 μM if racemate); for IC50: concentration required for semi-maximal inhibition of ATPase; for % inhibition. complete Skeletal: maximum value of inhibition of ATPase activity
Text: as §1

[7] = biological target: isolated smooth muscle myosin (UniProt P10587); assay type: biochemical, chamois; conditions: concentration required for semi-maximal inhibition of ATPase
Text: (ii) the concentration required for semi-maximal inhibition.

[8] = tested on: M. quadriceps femoris; assay: isometric force measurement of live, anesthetized rat M. quadriceps femoris due to electrical stimulation; assay type: in vivo
Experimental: (§2) The maximum isometric force induced by the stimulation was determined after intraperitoneal injection of some of the compounds of the invention. During the measurement, the following parameters of live anesthetized rats were continuously monitored: • a) heart rate • b) blood flow in the neck arteries • c) respiratory frequency • d) blood oxygen saturation ratio Results from live anesthetized rats are summarized in the table below.

[9] = vital parameters of live anesthetized rats monitored during isometric force measurement; assay type: in vivo; conditions: anesthetized rat; for Maximum change of vital parameters (%) blood flow: neck arteries
Experimental: as §2, with “ratio” for “ratio Results from live anesthetized rats are summarized in the table below.”

[10] = solubility in PBS in the presence of 1% DMSO; assay type: physicochemical; conditions: phosphate buffered saline with 1% DMSO, aqueous buffer, kinetic from dmso stock, PBS w/o Mg, Ca
[11] = biological target: isolated smooth muscle myosin (UniProt P10587); assay type: biochemical, chamois; conditions: for % inhibition at 5 μM (or 10 μM if racemate) Smooth: 5 μM (10 μM if racemate); for % inhibition at 5 μM (or 10 μM if racemate) Smooth / % inhibition at 50 μM (or 100 μM if racemate) Smooth: ATPase activity; for % inhibition at 50 μM (or 100 μM if racemate) Smooth: 50 μM (100 μM if racemate); for % inhibition. complete Smooth: maximum value of inhibition of ATPase activity
[12] = tested on: myosin 2; conditions: myosin 2 inhibitors, review data; cited from earlier work
[13] = tested on: skeletal muscle myosin 2; conditions: skeletal muscle myosin 2; binds weakly; cited from earlier work
[14] = maximum value of inhibition of ATPase activity

T1 sequence (P79293 whole entry): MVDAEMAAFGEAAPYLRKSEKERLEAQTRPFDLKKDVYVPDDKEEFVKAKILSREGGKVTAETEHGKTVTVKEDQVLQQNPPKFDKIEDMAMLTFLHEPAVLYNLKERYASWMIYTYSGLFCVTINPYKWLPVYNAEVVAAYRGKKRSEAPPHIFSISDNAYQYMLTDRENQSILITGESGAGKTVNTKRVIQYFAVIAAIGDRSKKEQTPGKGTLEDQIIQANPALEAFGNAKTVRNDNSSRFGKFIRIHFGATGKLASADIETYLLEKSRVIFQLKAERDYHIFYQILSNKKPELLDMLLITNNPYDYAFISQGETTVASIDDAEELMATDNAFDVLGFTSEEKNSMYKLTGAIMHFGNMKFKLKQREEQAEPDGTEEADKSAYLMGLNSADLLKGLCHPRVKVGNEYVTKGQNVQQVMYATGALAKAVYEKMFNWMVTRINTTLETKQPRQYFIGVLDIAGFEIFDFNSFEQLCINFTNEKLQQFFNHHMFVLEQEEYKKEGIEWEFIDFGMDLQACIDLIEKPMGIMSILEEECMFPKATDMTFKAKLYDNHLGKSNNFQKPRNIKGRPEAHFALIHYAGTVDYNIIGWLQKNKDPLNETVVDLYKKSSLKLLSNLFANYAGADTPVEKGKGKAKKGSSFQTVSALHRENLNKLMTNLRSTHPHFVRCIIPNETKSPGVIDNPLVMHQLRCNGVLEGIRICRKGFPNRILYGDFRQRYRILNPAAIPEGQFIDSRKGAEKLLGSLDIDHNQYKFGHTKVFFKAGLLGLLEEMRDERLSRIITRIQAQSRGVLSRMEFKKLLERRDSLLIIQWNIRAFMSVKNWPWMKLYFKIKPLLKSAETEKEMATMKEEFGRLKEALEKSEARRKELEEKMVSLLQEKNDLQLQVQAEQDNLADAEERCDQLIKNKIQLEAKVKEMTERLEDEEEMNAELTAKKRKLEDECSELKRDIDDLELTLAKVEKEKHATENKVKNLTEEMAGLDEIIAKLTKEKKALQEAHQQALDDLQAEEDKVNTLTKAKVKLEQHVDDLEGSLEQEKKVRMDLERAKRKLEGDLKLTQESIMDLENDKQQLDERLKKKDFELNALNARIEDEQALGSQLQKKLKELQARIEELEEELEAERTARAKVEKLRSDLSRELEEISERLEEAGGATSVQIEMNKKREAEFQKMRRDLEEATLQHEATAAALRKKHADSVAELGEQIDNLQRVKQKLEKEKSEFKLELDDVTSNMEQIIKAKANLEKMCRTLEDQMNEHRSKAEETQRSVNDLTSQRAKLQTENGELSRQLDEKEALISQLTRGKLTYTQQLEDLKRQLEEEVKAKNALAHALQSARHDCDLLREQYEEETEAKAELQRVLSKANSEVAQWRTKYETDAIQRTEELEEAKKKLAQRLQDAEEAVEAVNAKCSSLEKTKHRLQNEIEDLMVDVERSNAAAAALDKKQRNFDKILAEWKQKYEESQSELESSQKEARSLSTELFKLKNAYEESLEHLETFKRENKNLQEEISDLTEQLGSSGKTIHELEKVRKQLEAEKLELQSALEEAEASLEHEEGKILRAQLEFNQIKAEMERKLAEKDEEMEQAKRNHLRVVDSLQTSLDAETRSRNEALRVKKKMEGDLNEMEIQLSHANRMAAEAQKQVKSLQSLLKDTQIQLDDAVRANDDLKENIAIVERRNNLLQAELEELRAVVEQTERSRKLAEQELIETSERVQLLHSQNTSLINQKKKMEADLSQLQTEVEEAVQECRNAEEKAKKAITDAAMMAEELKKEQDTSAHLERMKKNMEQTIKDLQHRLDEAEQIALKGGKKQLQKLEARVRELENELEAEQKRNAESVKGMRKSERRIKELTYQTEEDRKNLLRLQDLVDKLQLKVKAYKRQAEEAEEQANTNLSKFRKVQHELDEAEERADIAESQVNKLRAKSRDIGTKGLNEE
recombinant human non-muscle myosin 2 NM2B, sequence (P35580 whole entry): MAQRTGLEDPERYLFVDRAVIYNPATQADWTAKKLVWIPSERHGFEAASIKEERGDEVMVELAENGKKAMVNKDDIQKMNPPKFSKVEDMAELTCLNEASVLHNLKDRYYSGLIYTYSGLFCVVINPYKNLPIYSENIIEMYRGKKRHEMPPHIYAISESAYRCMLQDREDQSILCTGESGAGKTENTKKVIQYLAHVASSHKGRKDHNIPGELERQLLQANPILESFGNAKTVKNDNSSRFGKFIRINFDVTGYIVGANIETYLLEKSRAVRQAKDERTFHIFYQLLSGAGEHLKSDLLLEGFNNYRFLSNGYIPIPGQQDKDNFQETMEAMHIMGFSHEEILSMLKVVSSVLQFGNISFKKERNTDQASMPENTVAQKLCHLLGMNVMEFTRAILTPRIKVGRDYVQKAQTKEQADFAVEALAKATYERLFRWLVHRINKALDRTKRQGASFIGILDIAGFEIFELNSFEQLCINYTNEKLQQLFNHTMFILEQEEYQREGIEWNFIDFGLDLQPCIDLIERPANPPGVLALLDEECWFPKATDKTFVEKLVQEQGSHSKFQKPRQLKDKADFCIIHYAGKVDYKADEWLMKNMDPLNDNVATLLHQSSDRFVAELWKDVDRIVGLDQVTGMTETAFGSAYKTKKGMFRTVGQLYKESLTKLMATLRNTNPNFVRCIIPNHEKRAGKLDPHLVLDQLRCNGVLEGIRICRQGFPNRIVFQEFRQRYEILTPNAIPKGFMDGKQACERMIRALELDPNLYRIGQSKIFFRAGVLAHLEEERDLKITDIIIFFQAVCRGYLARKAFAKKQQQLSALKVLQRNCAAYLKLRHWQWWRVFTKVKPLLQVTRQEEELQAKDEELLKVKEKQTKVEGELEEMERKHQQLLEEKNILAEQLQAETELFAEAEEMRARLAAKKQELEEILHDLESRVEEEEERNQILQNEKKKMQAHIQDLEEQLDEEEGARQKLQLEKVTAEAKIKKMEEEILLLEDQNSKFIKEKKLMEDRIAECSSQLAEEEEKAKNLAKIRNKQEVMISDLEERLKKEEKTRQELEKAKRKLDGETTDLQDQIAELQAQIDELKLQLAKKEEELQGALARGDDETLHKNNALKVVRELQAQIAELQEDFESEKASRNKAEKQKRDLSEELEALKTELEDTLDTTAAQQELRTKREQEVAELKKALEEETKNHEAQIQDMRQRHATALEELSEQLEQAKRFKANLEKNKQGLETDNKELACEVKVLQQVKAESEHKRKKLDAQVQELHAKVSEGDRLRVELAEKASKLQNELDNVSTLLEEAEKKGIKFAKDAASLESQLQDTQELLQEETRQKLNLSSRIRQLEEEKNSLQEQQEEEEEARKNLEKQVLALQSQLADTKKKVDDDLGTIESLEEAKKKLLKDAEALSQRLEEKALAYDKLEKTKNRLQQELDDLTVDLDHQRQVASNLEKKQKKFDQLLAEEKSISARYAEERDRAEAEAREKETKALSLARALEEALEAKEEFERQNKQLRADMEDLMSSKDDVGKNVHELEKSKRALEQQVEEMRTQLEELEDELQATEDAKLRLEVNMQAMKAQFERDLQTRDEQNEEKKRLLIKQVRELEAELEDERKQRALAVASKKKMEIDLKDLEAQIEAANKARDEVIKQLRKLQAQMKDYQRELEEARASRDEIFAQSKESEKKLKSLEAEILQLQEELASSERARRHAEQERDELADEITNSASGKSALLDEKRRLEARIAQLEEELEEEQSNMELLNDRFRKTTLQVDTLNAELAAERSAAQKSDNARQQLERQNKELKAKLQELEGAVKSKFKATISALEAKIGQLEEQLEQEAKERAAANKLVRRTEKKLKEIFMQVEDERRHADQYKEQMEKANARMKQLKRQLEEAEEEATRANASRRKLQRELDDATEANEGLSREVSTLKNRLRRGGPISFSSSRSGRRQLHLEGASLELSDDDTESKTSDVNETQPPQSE

In the case of `O=C1c2ccncc2N=C2N(c3ccccc3)CCC12O` (centres unmarked) [Compound 174, 3a-Hydroxy-1-phenyl-1H,2H,3H,3aH,4H-pyrrolo[2,3-b]1,7-naphthyridin-4-one], the IC50 [1] is reported as 10 µM, the “Inhibition (%) Dicty” value ([1]; maximum inhibition, compounds in IC50 range 1-11 μM) is reported as 20% and the “% inhibition. complete Dicty” value [1, 14] is reported as 20%. For the same compound, the inhibition at 5 µM [1] was 7%, the inhibition at 50 µM [1] was 17% and the IC50 [2] was 1 µM. For the same compound, the inhibition at 5 µM [2] was 12%, the inhibition at 50 µM [2] was 9% and the IC50 ([3]; concentration required for semi-maximal inhibition of ATPase) was 15 µM. The “% inhibition. complete NM2B” value [3, 14] was 12%, the inhibition at 5 µM ([3]; read-out: % inhibition at 5 μM (or 10 μM if racemate) NM2B, 5 μM (10 μM if racemate), ATPase activity) was 2% and the inhibition at 50 µM ([3]; read-out: % inhibition at 50 μM (or 100 μM if racemate) NM2B, 50 μM (100 μM if racemate), ATPase activity) was 9%. The IC50 [4] was 2 µM, the inhibition at 5 µM [4] was 7% and the inhibition at 50 µM [4] was 9%. The IC50 [5] was > 100 µM, the “% inhibition. complete cardiac” value [5] was 100% and the inhibition at 5 µM [5] was 2%. The inhibition at 50 µM [5] was 15%, the “% inhibition at 5 μM (or 10 μM if racemate) Skeletal” value [6] was 25% and the “% inhibition at 50 μM (or 100 μM if racemate) Skeletal” value [6] was 77%. For the same compound, the IC50 [6] was 17 µM, the “% inhibition. complete Skeletal” value [6] was 100% and the IC50 [7] was > 100 µM. The “Maximum change in isometric force at rear leg (%)” value (“Maximum change … at rear leg (%)” for short) ([8]; 6 mg i.p.) was 25%, the “Maximum change of vital parameters (%) heart rate” value (“Maximum change … (%) heart rate” for short) ([9]; 6 mg i.p.) was 3% and the “Maximum change of vital parameters (%) oxygen saturation” value (from here on “Maximum change … (%) oxygen saturation”) ([9]; 6 mg i.p.) was −19%. The “Maximum change of vital parameters (%) respiratory frequency” value (“Maximum change … (%) respiratory frequency” for short) ([9]; 6 mg i.p.) was −20%, the “Maximum change of vital parameters (%) blood flow” value (“Maximum change … (%) blood flow” for short) ([9]; 6 mg i.p.) was 4% and the solubility [10] was ≥ 1000 µM. The “% inhibition at 5 μM (or 10 μM if racemate) Smooth” value [11] was 1%, the “% inhibition at 50 μM (or 100 μM if racemate) Smooth” value [11] was 6% and the “% inhibition. complete Smooth” value [11] was 51%.

In the case of `CC(=O)/C(C)=N/O` [BDM, 2,3-butanedione monoxime], the Binding strength [12] is given as ~5 mM and the IC50 [13] is given as ~5000 µM.

With `Cc1cc2c(s1)N=C1N(c3ccc(N4CCOCC4)cc3)CCC1(O)C2=O` (centres unmarked) [Compound 220, 9-Hydroxy-5-methyl-12-[4-(morpholin-4-yl)phenyl]-4-thia-2,12-diazatricyclo[7.3.0.0^3,7]dodeca-1,3(7),5-trien-8-one] the IC50 [1] was > 100 µM, the inhibition at 5 µM [1] was 0% and the inhibition at 50 µM [1] was 0%. For the same compound, the IC50 [2] was 0.93 µM, the “% inhibition. complete NM2A” value [2, 14] was 20% and the inhibition at 5 µM [2] was 16%. The inhibition at 50 µM [2] was 22%, the IC50 [4] was 1.8 µM and the “Inhibition (%) NM2C” value ([4]; maximum inhibition, compounds in IC50 range 1-5 μM) was 24%. For the same compound, the “% inhibition. complete NM2C” value [4, 14] was 24%, the inhibition at 5 µM [4] was 19% and the inhibition at 50 µM [4] was 21%. For the same compound, the IC50 [5] was 5.6 µM, the “Inhibition (%) cardiac” value ([5]; maximum inhibition, compounds in IC50 range 3-6 μM) was 39% and the “% inhibition. complete cardiac” value [5] was 39%. For the same compound, the inhibition at 5 µM [5] was 17%, the inhibition at 50 µM [5] was 37% and the “% inhibition at 5 μM (or 10 μM if racemate) Skeletal” value [6] was 86%. For the same compound, the “% inhibition at 50 μM (or 100 μM if racemate) Skeletal” value [6] was 94%, the IC50 [6] was 0.49 µM and the “% inhibition. complete Skeletal” value [6] was 96%. The IC50 [7] was 2.3 µM, the “Maximum change … at rear leg (%)” value ([8]; 1 mg i.p.) was 19% and the “Maximum change … at rear leg (%)” value ([8]; 3 mg i.p.) was 23%. For the same compound, the “Maximum change … at rear leg (%)” value ([8]; 6 mg i.p.) was 42%, the “Maximum change … (%) heart rate” value ([9]; 1 mg i.p.) was 1% and the “Maximum change … (%) oxygen saturation” value ([9]; 1 mg i.p.) was −1%. The “Maximum change … (%) respiratory frequency” value ([9]; 1 mg i.p.) was −13%, the “Maximum change … (%) blood flow” value ([9]; 1 mg i.p.) was 8% and the “Maximum change … (%) heart rate” value ([9]; 3 mg i.p.) was 8%. The “Maximum change … (%) oxygen saturation” value ([9]; 3 mg i.p.) was −17%, the “Maximum change … (%) respiratory frequency” value ([9]; 3 mg i.p.) was −21% and the “Maximum change … (%) blood flow” value ([9]; 3 mg i.p.) was 19%. The “Maximum change … (%) heart rate” value ([9]; 6 mg i.p.) was 22%, the “Maximum change … (%) oxygen saturation” value ([9]; 6 mg i.p.) was −28% and the “Maximum change … (%) respiratory frequency” value ([9]; 6 mg i.p.) was −22%. For the same compound, the “Maximum change … (%) blood flow” value ([9]; 6 mg i.p.) was −1%, the “Maximum change … (%) heart rate” value ([9]; 10 mg i.p.) was 3% and the “Maximum change … (%) oxygen saturation” value ([9]; 10 mg i.p.) was −41%. For the same compound, the “Maximum change … (%) respiratory frequency” value ([9]; 10 mg i.p.) was −30%, the “Maximum change … (%) blood flow” value ([9]; 10 mg i.p.) was −3% and the solubility [10] was 710 µM. For the same compound, the “% inhibition at 5 μM (or 10 μM if racemate) Smooth” value [11] was 34%, the “% inhibition at 50 μM (or 100 μM if racemate) Smooth” value [11] was 54% and the “% inhibition. complete Smooth” value [11] was 51%.
